According to patent US9102752B2, “Peptide vaccine for prevention and immunotherapy of dementia of the Alzheimer's type” (United Biomedical, Inc., priority 2013, dated 2015):

How the values were obtained:
[1] = system: anti-Aβ antibodies in sera of vaccinated patients; assay: Epitope mapping, competitive binding inhibition EIA with patient sera (10-mer peptides, IC50); design: species or system human; Epitope mapping, fine specificity analysis, serum of subject P210: unit not given here; details: for Epitope mapping, fine specificity analysis, serum of subject P101: serum 16 wpi of vaccinated patient P101; for Epitope mapping, fine specificity analysis, serum of subject P102: serum 16 wpi of vaccinated patient P102; for Epitope mapping, fine specificity analysis, serum of subject P103: serum 16 wpi of vaccinated patient P103; for Epitope mapping, fine specificity analysis, serum of subject P104: serum 16 wpi of vaccinated patient P104; for Epitope mapping, fine specificity analysis, serum of subject P105: serum 16 wpi of vaccinated patient P105; for Epitope mapping, fine specificity analysis, serum of subject P106: serum 16 wpi of vaccinated patient P106; for Epitope mapping, fine specificity analysis, serum of subject P107: serum 16 wpi of vaccinated patient P107; for Epitope mapping, fine specificity analysis, serum of subject P108: serum 16 wpi of vaccinated patient P108; for Epitope mapping, fine specificity analysis, serum of subject P109: serum 16 wpi of vaccinated patient P109; for Epitope mapping, fine specificity analysis, serum of subject P201: serum 16 wpi of vaccinated patient P201; for Epitope mapping, fine specificity analysis, serum of subject P202: serum 16 wpi of vaccinated patient P202; for Epitope mapping, fine specificity analysis, serum of subject P203: serum 16 wpi of vaccinated patient P203; for Epitope mapping, fine specificity analysis, serum of subject P204: serum 16 wpi of vaccinated patient P204; for Epitope mapping, fine specificity analysis, serum of subject P205: serum 16 wpi of vaccinated patient P205; for Epitope mapping, fine specificity analysis, serum of subject P206: serum 16 wpi of vaccinated patient P206; for Epitope mapping, fine specificity analysis, serum of subject P207: serum 16 wpi of vaccinated patient P207; for Epitope mapping, fine specificity analysis, serum of subject P208: serum 16 wpi of vaccinated patient P208; for Epitope mapping, fine specificity analysis, serum of subject P209: serum 16 wpi of vaccinated patient P209; for Epitope mapping, fine specificity analysis, serum of subject P210: serum 16 wpi of vaccinated patient P210
[2] = system: anti-Aβ antibodies in macaque antisera; assay: Specificity analysis (10-mer peptide ELISA) of antisera from Cynomolgus macaques; format: binding
[3] = antisera of macaques given UBI AD Vaccine 150 μg/dose, 9 WPI
[4] = antisera of macaques given UBI AD Vaccine 150 μg/dose, 15 WPI
[5] = antisera of macaques given UBI AD Vaccine 750 μg/dose, 9 WPI
[6] = antisera of macaques given UBI AD Vaccine 750 μg/dose, 15 WPI

Row | Substance | Epitope mapping, fine specificity analysis, serum of subject P101 [1] | Epitope mapping, fine specificity analysis, serum of subject P102 [1] | Epitope mapping, fine specificity analysis, serum of subject P103 [1] | Epitope mapping, fine specificity analysis, serum of subject P104 [1] | Epitope mapping, fine specificity analysis, serum of subject P105 [1] | Epitope mapping, fine specificity analysis, serum of subject P106 [1] | Epitope mapping, fine specificity analysis, serum of subject P107 [1] | Epitope mapping, fine specificity analysis, serum of subject P108 [1] | Epitope mapping, fine specificity analysis, serum of subject P109 [1] | Epitope mapping, fine specificity analysis, serum of subject P201 [1] | Epitope mapping, fine specificity analysis, serum of subject P202 [1] | Epitope mapping, fine specificity analysis, serum of subject P203 [1] | Epitope mapping, fine specificity analysis, serum of subject P204 [1] | Epitope mapping, fine specificity analysis, serum of subject P205 [1] | Epitope mapping, fine specificity analysis, serum of subject P206 [1] | Epitope mapping, fine specificity analysis, serum of subject P207 [1] | Epitope mapping, fine specificity analysis, serum of subject P208 [1] | Epitope mapping, fine specificity analysis, serum of subject P209 [1] | Epitope mapping, fine specificity analysis, serum of subject P210 [1] | Reactivity of antisera with peptide (specificity analysis ELISA) [2, 3] | also measured
1 | 20 (RHDSGYEVHH; PEPTIDE (1)..(10) Abeta 5-14 or APP 770(R676-H685); listed as Homo sapiens) [compound 20] | 0 | 0 | 0 | 0 | 0 | 0 | 0 | 0 | 0 | 0 | 0 | 0 | 0 | 0 | 0 | 0 | 0 | 0 | 0 | 0.296 | Reactivity of antisera with peptide (specificity analysis ELISA) [2, 4]: 0.400; Reactivity of antisera with peptide (specificity analysis ELISA) [2, 5]: 0.453; Reactivity of antisera with peptide (specificity analysis ELISA) [2, 6]: 0.461
2 | 21 (HDSGYEVHHQ; PEPTIDE (1)..(10) Abeta 6-15 or APP 770(H677-Q686); listed as Homo sapiens) [compound 21] | 0 | 0 | 0 | 0 | 0 | 0 | 0 | 0 | 0 | 0 | 0 | 0 | 0 | 0 | 0 | 0 | 0 | 0 | 0 | 0.266 | Reactivity of antisera with peptide (specificity analysis ELISA) [2, 4]: 0.494; Reactivity of antisera with peptide (specificity analysis ELISA) [2, 5]: 0.419; Reactivity of antisera with peptide (specificity analysis ELISA) [2, 6]: 0.332
3 | 22 (DSGYEVHHQK; PEPTIDE (1)..(10) Abeta 7-16 or APP 770(D678-K687); listed as Homo sapiens) [compound 22] | 214 | 0 | 0 | 0 | 0 | 0 | 0 | 0 | 0 | 0 | 0 | 0 | 0 | 0 | 0 | 0 | 0 | 0 | 0 | 0.270 | Reactivity of antisera with peptide (specificity analysis ELISA) [2, 4]: 0.289; Reactivity of antisera with peptide (specificity analysis ELISA) [2, 5]: 0.405; Reactivity of antisera with peptide (specificity analysis ELISA) [2, 6]: 0.197
4 | 23 (SGYEVHHQKL; PEPTIDE (1)..(10) Abeta 8-17 or APP 770(S679-L688); listed as Homo sapiens) [compound 23] | 0 | 0 | 0 | 0 | 0 | 0 | 0 | 0 | 0 | 0 | 0 | 0 | 0 | 0 | 0 | 0 | 0 | 0 | 0 | 0.097 | Reactivity of antisera with peptide (specificity analysis ELISA) [2, 4]: 0.071; Reactivity of antisera with peptide (specificity analysis ELISA) [2, 5]: 0.077; Reactivity of antisera with peptide (specificity analysis ELISA) [2, 6]: 0.082
5 | 24 (GYEVHHQKLV; PEPTIDE (1)..(10) Abeta 9-18 or APP 770(G680-V689); listed as Homo sapiens) [compound 24] | 0 | 0 | 0 | 0 | 0 | 0 | 0 | 0 | 0 | 0 | 0 | 0 | 0 | 0 | 0 | 16 | 0 | 0 | 0 | 0.055 | Reactivity of antisera with peptide (specificity analysis ELISA) [2, 4]: 0.067; Reactivity of antisera with peptide (specificity analysis ELISA) [2, 5]: 0.052; Reactivity of antisera with peptide (specificity analysis ELISA) [2, 6]: 0.059
